The source made the active and inactive calls. No rule for the calls is given here.
Tested on: CCRIS mutagenicity, Ames/micronucleus/aberration tests
Test: CCRIS mutagenicity studies

## C=CC(=O)O
Test System: AMES SALMONELLA TYPHIMURIUM, Strain/Indicator: TA97, Metabolic Activation: NONE, Method: PREINCUBATION
  mutagenic call: inactive; negative
Test System: AMES SALMONELLA TYPHIMURIUM, Strain/Indicator: TA97, Metabolic Activation: S-9, Method: PREINCUBATION
  mutagenic call: inactive; negative
Test System: AMES SALMONELLA TYPHIMURIUM, Strain/Indicator: TA98, Metabolic Activation: HAMSTER, LIVER, S-9, AROCLOR 1254 (10%), Method: PREINCUBATION
  mutagenic call: inactive; negative
Test System: AMES SALMONELLA TYPHIMURIUM, Strain/Indicator: TA98, Metabolic Activation: HAMSTER, LIVER, S-9, AROCLOR 1254, Method: STANDARD PLATE
  mutagenic call: inactive; negative
Test System: AMES SALMONELLA TYPHIMURIUM, Strain/Indicator: TA98, Metabolic Activation: NONE, Method: PREINCUBATION
  mutagenic call: inactive; negative
Test System: AMES SALMONELLA TYPHIMURIUM, Strain/Indicator: TA98, Metabolic Activation: NONE, Method: STANDARD PLATE
  mutagenic call: inactive; negative
Test System: AMES SALMONELLA TYPHIMURIUM, Strain/Indicator: TA98, Metabolic Activation: RAT LIVER S-9, PHENOBARBITAL AND BETA-NAPHTHOFLAVONE, Method: PREINCUBATION
  mutagenic call: inactive; negative
Test System: AMES SALMONELLA TYPHIMURIUM, Strain/Indicator: TA98, Metabolic Activation: RAT, LIVER, S-9, AROCLOR 1254 (10%), Method: PREINCUBATION
  mutagenic call: inactive; negative
Test System: AMES SALMONELLA TYPHIMURIUM, Strain/Indicator: TA98, Metabolic Activation: RAT, LIVER, S-9, AROCLOR 1254, Method: STANDARD PLATE
  mutagenic call: inactive; negative
Test System: AMES SALMONELLA TYPHIMURIUM, Strain/Indicator: TA98, Metabolic Activation: RAT, LIVER, S-9, AROCLOR, Method: STANDARD PLATE
  mutagenic call: inactive; negative
Test System: AMES SALMONELLA TYPHIMURIUM, Strain/Indicator: TA100, Metabolic Activation: HAMSTER, LIVER, S-9, AROCLOR 1254 (10%), Method: PREINCUBATION
  mutagenic call: inactive; negative
Test System: AMES SALMONELLA TYPHIMURIUM, Strain/Indicator: TA100, Metabolic Activation: HAMSTER, LIVER, S-9, AROCLOR 1254, Method: STANDARD PLATE
  mutagenic call: inactive; negative
Test System: AMES SALMONELLA TYPHIMURIUM, Strain/Indicator: TA100, Metabolic Activation: NONE, Method: PREINCUBATION
  mutagenic call: inactive; negative
Test System: AMES SALMONELLA TYPHIMURIUM, Strain/Indicator: TA100, Metabolic Activation: NONE, Method: STANDARD PLATE
  mutagenic call: inactive; negative
Test System: AMES SALMONELLA TYPHIMURIUM, Strain/Indicator: TA100, Metabolic Activation: RAT LIVER S-9, PHENOBARBITAL AND BETA-NAPHTHOFLAVONE, Method: PREINCUBATION
  mutagenic call: inactive; negative
Test System: AMES SALMONELLA TYPHIMURIUM, Strain/Indicator: TA100, Metabolic Activation: RAT, LIVER, S-9, AROCLOR 1254 (10%), Method: PREINCUBATION
  mutagenic call: inactive; negative
Test System: AMES SALMONELLA TYPHIMURIUM, Strain/Indicator: TA100, Metabolic Activation: RAT, LIVER, S-9, AROCLOR 1254, Method: STANDARD PLATE
  mutagenic call: inactive; negative
Test System: AMES SALMONELLA TYPHIMURIUM, Strain/Indicator: TA100, Metabolic Activation: RAT, LIVER, S-9, AROCLOR, Method: STANDARD PLATE
  mutagenic call: inactive; negative
Test System: AMES SALMONELLA TYPHIMURIUM, Strain/Indicator: TA102, Metabolic Activation: NONE, Method: PREINCUBATION
  mutagenic call: inactive; negative
Test System: AMES SALMONELLA TYPHIMURIUM, Strain/Indicator: TA102, Metabolic Activation: RAT LIVER S-9, PHENOBARBITAL AND BETA-NAPHTHOFLAVONE, Method: PREINCUBATION
  mutagenic call: inactive; negative
Test System: AMES SALMONELLA TYPHIMURIUM, Strain/Indicator: TA102, Metabolic Activation: S-9, Method: PREINCUBATION
  mutagenic call: inactive; negative
Test System: AMES SALMONELLA TYPHIMURIUM, Strain/Indicator: TA104, Metabolic Activation: NONE, Method: PREINCUBATION
  mutagenic call: inactive; negative
Test System: AMES SALMONELLA TYPHIMURIUM, Strain/Indicator: TA104, Metabolic Activation: RAT LIVER S-9, PHENOBARBITAL AND BETA-NAPHTHOFLAVONE, Method: PREINCUBATION
  mutagenic call: inactive; negative
Test System: AMES SALMONELLA TYPHIMURIUM, Strain/Indicator: TA1535, Metabolic Activation: HAMSTER, LIVER, S-9, AROCLOR 1254 (10%), Method: PREINCUBATION
  mutagenic call: inactive; negative
Test System: AMES SALMONELLA TYPHIMURIUM, Strain/Indicator: TA1535, Metabolic Activation: HAMSTER, LIVER, S-9, AROCLOR 1254, Method: STANDARD PLATE
  mutagenic call: inactive; negative
Test System: AMES SALMONELLA TYPHIMURIUM, Strain/Indicator: TA1535, Metabolic Activation: NONE, Method: PREINCUBATION
  mutagenic call: inactive; negative
Test System: AMES SALMONELLA TYPHIMURIUM, Strain/Indicator: TA1535, Metabolic Activation: NONE, Method: STANDARD PLATE
  mutagenic call: inactive; negative
Test System: AMES SALMONELLA TYPHIMURIUM, Strain/Indicator: TA1535, Metabolic Activation: RAT LIVER S-9, PHENOBARBITAL AND BETA-NAPHTHOFLAVONE, Method: PREINCUBATION
  mutagenic call: inactive; negative
Test System: AMES SALMONELLA TYPHIMURIUM, Strain/Indicator: TA1535, Metabolic Activation: RAT, LIVER, S-9, AROCLOR 1254 (10%), Method: PREINCUBATION
  mutagenic call: inactive; negative
Test System: AMES SALMONELLA TYPHIMURIUM, Strain/Indicator: TA1535, Metabolic Activation: RAT, LIVER, S-9, AROCLOR 1254, Method: STANDARD PLATE
  mutagenic call: inactive; negative
Test System: AMES SALMONELLA TYPHIMURIUM, Strain/Indicator: TA1535, Metabolic Activation: RAT, LIVER, S-9, AROCLOR, Method: STANDARD PLATE
  mutagenic call: inactive; negative
Test System: AMES SALMONELLA TYPHIMURIUM, Strain/Indicator: TA1537, Metabolic Activation: HAMSTER, LIVER, S-9, AROCLOR 1254 (10%), Method: PREINCUBATION
  mutagenic call: inactive; negative
Test System: AMES SALMONELLA TYPHIMURIUM, Strain/Indicator: TA1537, Metabolic Activation: HAMSTER, LIVER, S-9, AROCLOR 1254, Method: STANDARD PLATE
  mutagenic call: inactive; negative
Test System: AMES SALMONELLA TYPHIMURIUM, Strain/Indicator: TA1537, Metabolic Activation: NONE, Method: PREINCUBATION
  mutagenic call: inactive; negative
Test System: AMES SALMONELLA TYPHIMURIUM, Strain/Indicator: TA1537, Metabolic Activation: NONE, Method: STANDARD PLATE
  mutagenic call: inactive; negative
Test System: AMES SALMONELLA TYPHIMURIUM, Strain/Indicator: TA1537, Metabolic Activation: RAT LIVER S-9, PHENOBARBITAL AND BETA-NAPHTHOFLAVONE, Method: PREINCUBATION
  mutagenic call: inactive; negative
Test System: AMES SALMONELLA TYPHIMURIUM, Strain/Indicator: TA1537, Metabolic Activation: RAT, LIVER, S-9, AROCLOR 1254 (10%), Method: PREINCUBATION
  mutagenic call: inactive; negative
Test System: AMES SALMONELLA TYPHIMURIUM, Strain/Indicator: TA1537, Metabolic Activation: RAT, LIVER, S-9, AROCLOR 1254, Method: STANDARD PLATE
  mutagenic call: inactive; negative
Test System: AMES SALMONELLA TYPHIMURIUM, Strain/Indicator: TA1537, Metabolic Activation: RAT, LIVER, S-9, AROCLOR, Method: STANDARD PLATE
  mutagenic call: inactive; negative
Test System: AMES SALMONELLA TYPHIMURIUM, Strain/Indicator: TA1538, Metabolic Activation: HAMSTER, LIVER, S-9, AROCLOR 1254, Method: STANDARD PLATE
  mutagenic call: inactive; negative
Test System: AMES SALMONELLA TYPHIMURIUM, Strain/Indicator: TA1538, Metabolic Activation: NONE, Method: STANDARD PLATE
  mutagenic call: inactive; negative
Test System: AMES SALMONELLA TYPHIMURIUM, Strain/Indicator: TA1538, Metabolic Activation: RAT, LIVER, S-9, AROCLOR 1254, Method: STANDARD PLATE
  mutagenic call: inactive; negative
Test System: AMES SALMONELLA TYPHIMURIUM, Strain/Indicator: TA1538, Metabolic Activation: RAT, LIVER, S-9, AROCLOR, Method: STANDARD PLATE
  mutagenic call: inactive; negative
Test System: CHINESE HAMSTER OVARY, Strain/Indicator: CHO-K1-BH4 (HGPRT), Metabolic Activation: NONE
  mutagenic call: inactive; negative
Test System: CHINESE HAMSTER OVARY, Strain/Indicator: CHO-K1-BH4 (HGPRT), Metabolic Activation: RAT, LIVER, S-9, AROCLOR 1254
  mutagenic call: inactive; negative
Test System: E.COLI, Strain/Indicator: WP2UVRA/PKM101, Metabolic Activation: NONE, Method: PREINCUBATION
  mutagenic call: inactive; negative
Test System: E.COLI, Strain/Indicator: WP2UVRA/PKM101, Metabolic Activation: RAT LIVER S-9, PHENOBARBITAL AND BETA-NAPHTHOFLAVONE, Method: PREINCUBATION
  mutagenic call: inactive; negative
Test System: E.COLI, Strain/Indicator: WP2UVRA, Metabolic Activation: NONE, Method: PREINCUBATION
  mutagenic call: inactive; negative
Test System: E.COLI, Strain/Indicator: WP2UVRA, Metabolic Activation: RAT LIVER S-9, PHENOBARBITAL AND BETA-NAPHTHOFLAVONE, Method: PREINCUBATION
  mutagenic call: inactive; negative
Test System: MOUSE LYMPHOMA, Strain/Indicator: L5178Y (TK+/TK-), Metabolic Activation: RAT, LIVER, S-9, AROCLOR 1254, Method: SUSPENSION /PLATE
  mutagenic call: active; positive
Test System: MOUSE LYMPHOMA, Strain/Indicator: L5178Y (TK+/TK-), Metabolic Activation: RAT, LIVER, S-9, AROCLOR 1254, Method: SUSPENSION/PLATE
  mutagenic call: active; positive. reevaluation of results: positive
Test System: MOUSE LYMPHOMA, Strain/Indicator: L5178Y (TK+/TK-), Metabolic Activation: RAT, LIVER, S-9, AROCLOR, Method: SUSPENSION/PLATE
  mutagenic call: inactive; negative
Test System: UDS RAT HEPATOCYTES, Strain/Indicator: THY INCORP, Metabolic Activation: NONE, Method: AUTORADIOGRAPHY
  mutagenic call: inactive; negative
Test System: UDS RODENT CELLS, Strain/Indicator: SHE CELL-MEDIATED, Metabolic Activation: NONE, Method: LIQUID SCINTILLATION COUNTING (THYMIDINE INCORPORATION)
  mutagenic call: inactive; negative
Test System: UDS RODENT HEPATOCYTES, Strain/Indicator: THY INCORP (NON-S-PHASE), Metabolic Activation: NONE, Method: AUTORADIOGRAPHY
  mutagenic call: inactive; negative

From PubChem BioAssay AID1259407 (Chemical Carcinogenesis Research Information System (CCRIS), 2018)
